Data taken from BindingDB's records for patent US20240262835 (Antengene Discovery, 2024).

molecular target: Methylosome protein 50/Protein arginine N-methyltransferase 5 (Homo sapiens, UniProt O14744); experiment: PRMT5/MEP50 HotSpot Methyltransferase Assay
Method: Table 2: The assay used recombinant full-length histone H2A as the substrate of PRMT5. Enzymatic transfer of the tritiated methyl group from S-adenosyl-L-[methyl-3H]methionine (3H-SAM) to the histone H2A protein generated a radiolabeled histone H2A by measuring in a scintillation counter to determine the activity of PRMT5 enzyme in the presence and absence of compound. The assay reactions were conducted in the presence of 100 nM MTA. Briefly, compounds were solubilized in 100% DMSO at the highest concentration of 10 mM. […] Control samples lacking compound, PRTM5/MEP50 complex or various reaction components also were prepared and processed in parallel with compound test samples. SAH was used as a positive control for assay validation. To measure PRMT5 inhibitory activity, 1 nM PRTM5/MEP50 complex was preincubated with test compound in assay buffer containing 5 μM full-length histone H2A for 15 minutes at room temperature. The enzymatic reaction was initiated by adding 1 μM 3H-SAM (final concentration) and the mixture was incubated at 30° C. for 1 hour. The reaction was stopped and transferred to filter paper for detection. The amount of tritiated H2A in each sample was determined using a scintillation counter.

Sequence of Methylosome protein 50/Protein arginine N-methyltransferase 5 (O14744 whole entry): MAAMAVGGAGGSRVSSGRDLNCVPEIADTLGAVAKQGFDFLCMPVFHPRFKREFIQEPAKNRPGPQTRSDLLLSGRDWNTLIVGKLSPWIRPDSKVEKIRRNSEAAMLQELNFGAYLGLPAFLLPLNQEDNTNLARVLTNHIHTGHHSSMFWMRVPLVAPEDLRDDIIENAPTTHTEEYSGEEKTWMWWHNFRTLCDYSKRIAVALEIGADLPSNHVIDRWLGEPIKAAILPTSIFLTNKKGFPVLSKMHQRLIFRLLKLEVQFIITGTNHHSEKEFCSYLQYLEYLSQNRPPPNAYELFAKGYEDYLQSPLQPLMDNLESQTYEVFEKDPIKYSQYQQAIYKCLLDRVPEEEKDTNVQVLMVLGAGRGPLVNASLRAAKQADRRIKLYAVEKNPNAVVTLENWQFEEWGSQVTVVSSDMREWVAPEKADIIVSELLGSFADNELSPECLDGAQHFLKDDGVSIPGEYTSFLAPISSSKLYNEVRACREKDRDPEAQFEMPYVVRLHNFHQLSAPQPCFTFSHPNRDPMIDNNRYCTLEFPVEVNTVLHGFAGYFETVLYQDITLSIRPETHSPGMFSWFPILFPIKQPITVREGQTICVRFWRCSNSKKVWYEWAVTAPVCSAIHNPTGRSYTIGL
Sequence of Methylosome protein 50/Protein arginine N-methyltransferase 5 (Q9BQA1 whole entry, further chain): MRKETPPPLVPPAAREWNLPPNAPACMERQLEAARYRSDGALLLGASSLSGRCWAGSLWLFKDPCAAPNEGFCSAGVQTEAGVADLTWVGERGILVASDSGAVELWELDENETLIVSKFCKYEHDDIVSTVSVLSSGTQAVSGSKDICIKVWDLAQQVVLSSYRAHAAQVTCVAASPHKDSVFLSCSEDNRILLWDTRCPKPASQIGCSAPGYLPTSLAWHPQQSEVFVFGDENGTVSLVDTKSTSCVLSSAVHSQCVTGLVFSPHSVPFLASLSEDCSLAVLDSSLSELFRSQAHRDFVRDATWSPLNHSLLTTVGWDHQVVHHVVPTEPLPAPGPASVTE

Row | SMILES | IC50 [nM]
1 | C[C@H](c1ncccn1)N(Cc1ccc(C(F)(F)F)cn1)C(=O)c1ccc2nc(N)n3cncc3c2c1 [US20240262835, Compound 5] | 81
2 | C[C@H](c1ncccn1)N(Cc1ccc(C(F)(F)F)cn1)C(=O)c1cc2c(cn1)nc(N)c1cncn12 [US20240262835, Compound 10] | 379
3 | Cn1ncc(-c2ccc3c(c2)nc(N)c2cncn23)c1-c1c(F)cc2ccccc2c1C#N [US20240262835, Compound 1] | 8
4 | C[C@H](c1ncccn1)N(Cc1ccc(C(F)(F)F)cn1)C(=O)c1cc2c(cc1F)nc(N)c1cncn12 [US20240262835, Compound 6] | 101

The next lines start with the values.

Row | IC50 [nM] | SMILES
5 | 6 | C[C@H]1CC[C@H](c2ccc3c(c2)CCC(=O)N3)N(C(=O)c2ccc3nc(N)c4cncn4c3c2)C1 [US20240262835, Compound 4]
6 | 64 | C[C@H](c1ncccn1)N(Cc1ccc(C(F)(F)F)cn1)C(=O)c1ccc2nc(N)c3cncn3c2c1 [US20240262835, Compound 3]
